These results are taken from patent publication US6581606B2, “Method, apparatus and system for use in treating patient with a drug having an antineoplastic effect to optimize therapy and prevent an adverse drug response” (The Rx Files Corporation, priority 1999, dated 2003).

SMILES strings stand for the structures.

The conditions of this series: human, in vivo.

Experimental: A current dose of Taxol (paclitaxel) is 375 mg.
In this case, the prescriber would use the following information for the patient receiving Taxol: Current Dose 375 mg; Current Marker 660 (a unitless marker indicative of the current platelet count); Desired Marker 1,200 (a unitless marker indicative of where the prescriber wants to see the platelet count raised to); Previous Marker 640 (a unitless marker indicative of the patient's previous ANC).

With `CC(=O)O[C@H]1C(=O)[C@@]2(C)[C@H]([C@H](OC(=O)c3ccccc3)[C@]3(O)C[C@H](OC(=O)[C@H](O)[C@@H](NC(=O)c4ccccc4)c4ccccc4)C(C)=C1C3(C)C)[C@]1(OC(C)=O)CO[C@@H]1C[C@@H]2O` [Taxol, paclitaxel], the “Previous Marker (patient's previous ANC)” value was found to be 640.
